In patent US20090274773A1, “ANTIPROLIFERATIVE COMBINATION COMPRISING CYC-682 AND A CYTOTOXIC AGENT” (Cyclacel Limited, priority 2005, published 2009):

Legend:
Assay type in all cases: cell-based, human
[1] = test system: COLO205 cancer cell line; experiment: CYC682 drug-combination study (MTT, Chou and Talalay combination index, isobolograms)
Description: (§1) For simultaneous drug exposure, cells were seeded at 2×10^3 cells/well in 96-well plates and treated 24 hours later with increasing concentrations of CYC682 alone or with various concentrations of another drug corresponding to the IC20, IC40 or IC60 values. After approximately four doubling times (120 hours), the growth inhibitory effect was measured by the MTT assay.
(§2) Cells were seeded at 2×10^3 cells/well in 96-well plates and allowed to grow for 24 hour. Cells were then exposed to various concentrations of the first drug for 1 hour/24 hours/48 hours, the drug was removed, the cells were washed and the second drug was added. After additional drug exposure, the second drug was removed, the cells were washed and incubated in drug-free medium for 72 hours. Growth inhibition was then determined by the MTT assay.
(§3) Effects of drug combinations were evaluated using the Chou and Talalay method which is based on the median-effect principle (Chou T C, Talalay P. Quantitative analysis of dose-effect relationships: the combined effects of multiple drugs or enzyme inhibitors. Adv Enzyme Regul. 1984; 22:27-55). […] On the basis of the slope of the curve for each drug in a combination, it can be determined whether the drugs have mutually nonexclusive effects (e.g., independent or interactive modes of action).
(§4) The combination index (CI) is then determined by the equation:
(§5) CI=[(C)1/(Cx)1]+[(C)2/(Cx)2]+[α(C)1(C)2/(Cx)1(Cx)2],
(§6) where (Cx)1 is the concentration of drug 1 required to produce an x percent effect of that drug alone, and (C)1, the concentration of drug 1 required to produce the same x percent effect in combination with (C)2. If the mode of action of the drugs is mutually exclusive or nonexclusive, then α is 0 or 1, respectively. CI values will be calculated with this equation using different values of fa (i.e., for different degrees of cell growth inhibition). CI values of <1 indicate synergy, the value of 1 indicates additive effects, and values >1 indicate antagonism. Data were analyzed on an IBM-PC computer using concentration-effect analysis for microcomputer software (Biosoft, Cambridge, UK). For statistical analysis and graphs we will use Instat and Prism software (GraphPad, San Diego, USA). The dose-effect relationships for the drugs tested, alone or in paired combinations, were subjected to median-effect plot analysis to determine their relative potency (IC50), shape (m), and conformity (r) in each selected cell line. As stated above, the IC50 and m values were respectively used to calculate synergism and antagonism on the basis of the CI equation. Results were expressed as the mean±standard deviation of at least 3 experiments performed in duplicate. In each experiment, cells were exposed to the paired combinations for 48 hours as described above. Means and standard deviations were compared using Student's t-test (two-sided p value).
(§7) The effect of sequential and simultaneous exposure (FIG. 2) to CYC682 with oxaliplatin, doxorubicin, docetaxel and gemcitabine was studied in two sensitive colon cancer cell lines—COLO205 and HCT116 using combination indices that represent an affected fraction for the concentration of drugs corresponding to IC50 as previously described by Chou and Talalay.

[2] = test system: HCT116 cancer cell line; experiment: as above
Description: as §1, §2, §3, §4, §5, §6, §7

[3] = test system: NSCLC cell line H1299; experiment: CNDAC combinations (alamar blue, Calcusyn Combination Index); settings: for Interaction with CNDAC (in words), summary of Table 3: combination with CNDAC, regime not specified; for Combination Index at ED50, Concomitant / Combination Index at ED75, Concomitant / Combination Index at ED90, Concomitant: simultaneous treatment 72 h
Description: (§8) Experiments in the NSCLC cell lines H1299 or RERF-LC-MA were performed in 96-well plates, with cells seeded at a density of 3,000/well, in DMEM containing 10% (v/v) FCS. Stock solutions of all drugs were made up in dimethylsulfoxide (DMSO), with the exception of gemcitabine, which was dissolved in 0.9% (w/v) sterile saline solution.
For experimental assessment of potential synergistic interactions, the concomitant treatment regime involved simultaneous treatment of cells with CNDAC and the other agent under investigation for 72 h, alongside suitable controls of cells treated with the individual compounds alone for 72 hr. In the sequential treatment regimes, one drug was added to the cells 2 h after plating, and left for 24 h. Media was then aspirated, replaced with fresh media containing the second drug and incubated for 72 h. The two individual treatment controls for the sequential treatment regime involved substituting one of the drug treatments with drug-free media. […] Drug interactions were analysed using the Calcusyn software package (BioSoft, Cambridge, U.K.) described below.

[4] = test system: NSCLC cell line RERF-LC-MA; experiment: as above; settings: named agent in combination with CNDAC, simultaneous treatment 72 h
Description: as §8
For experimental assessment of potential synergistic interactions, the concomitant treatment regime involved simultaneous treatment of cells with CNDAC and the other agent under investigation for 72 h, alongside suitable controls of cells treated with the individual compounds alone for 72 hr. In the sequential treatment regimes, one drug was added to the cells 2 h after plating, and left for 24 h. Media was then aspirated, replaced with fresh media containing the second drug and incubated for 72 h. The two individual treatment controls for the sequential treatment regime involved substituting one of the drug treatments with drug-free media. After drug treatment, the number of cells in each well was estimated by incubating for 1 h in media containing 10% alamar blue (Roche, Lewes, East Sussex, U.K.) and measuring the absorbance at 488-595 nm. Drug interactions were analysed using the Calcusyn software package (BioSoft, Cambridge, U.K.) described below. A Combination Index (C.I.) of 1 indicates an additive drug interaction, whereas a C.I. greater than 1 is antagonistic and a score lower than 1 is synergistic.

[5] = named agent in combination with CNDAC, H1299, CNDAC 24 h then other agent 72 h
[6] = named agent in combination with CNDAC, H1299, named agent 24 h then CNDAC 72 h
[7] = named agent in combination with CNDAC, H1299

## COc1cccc2c1C(=O)c1c(O)c3c(c(O)c1C2=O)C[C@@](O)(C(=O)CO)C[C@@H]3O[C@H]1C[C@H](N)[C@H](O)[C@H](C)O1 [Doxorubicin]
[1]; COLO205 (FIG. 5), sequential exposure, at high concentrations
  Interaction with CYC682 (isobologram): synergistic
[2]; HCT116 (FIG. 5), sequential exposure, at high concentrations
  Interaction with CYC682 (isobologram): synergistic
[3]; H1299, concomitant treatment
  Interaction with CNDAC at ED50 (in words): synergy
[3]; H1299, pre-treatment with named agent
  Interaction with CNDAC at ED50 (in words): synergy
[3]
  Interaction with CNDAC (in words), summary of Table 3: synergistic drug interactions
[3]; [5]
  Combination Index at ED75, CNDAC pretreatment: 1.24
  Combination Index at ED90, CNDAC pretreatment: 2.23
[3]; named agent in combination with CNDAC, H1299, CNDAC 24 h then other agent 72 h, C.I. <1 synergistic, 1 additive, >1 antagonistic
  Combination Index at ED50, CNDAC pretreatment: 0.95
[3]; [6]
  Combination Index at ED50, Other (named agent) pretreatment: 0.64
  Combination Index at ED75, Other (named agent) pretreatment: 0.83
  Combination Index at ED90, Other (named agent) pretreatment: 1.63
[3]; [7]
  Combination Index at ED50, Concomitant: 0.63
  Combination Index at ED75, Concomitant: 1.14
  Combination Index at ED90, Concomitant: 2.75

## CC(=O)O[C@@]12CO[C@@H]1C[C@H](O)[C@@]1(C)C(=O)[C@H](O)C3=C(C)[C@@H](OC(=O)[C@H](O)[C@@H](NC(=O)OC(C)(C)C)c4ccccc4)C[C@@](O)([C@@H](OC(=O)c4ccccc4)[C@H]21)C3(C)C [Docetaxel]
[1]; COLO205, named agent given prior to CYC682
  Interaction with CYC682 (isobologram): synergistic effect
[2]; HCT116, named agent given prior to CYC682
  Interaction with CYC682 (isobologram): synergistic effect
[4]
  Combination Index at ED50, Concomitant: 0.9
  Combination Index at ED75, Concomitant: 0.97
  Combination Index at ED90, Concomitant: 1.1
[3]
  Interaction with CNDAC (in words), summary of Table 3: synergistic drug interactions
[3]; [7]
  Combination Index at ED50, Concomitant: 0.93
  Combination Index at ED75, Concomitant: 1.13
  Combination Index at ED90, Concomitant: 2.01
